Source: patent publication US7041821B2, “Synthetic molecules for labeling histidine-rich proteins” (The Regents of the University of California, priority 2003, dated 2006)
Like-named read-outs stand apart in the source and are kept apart here.

How the values were obtained:
[1] = test system: his6-CFP; settings: +Zn2+ + his6-CFP: 1 μM dye, pH 7.2, 100 μM ZnCl2 and 1 μM his6-CFP
Procedure: Excitation (ex), emission (em) maxima (in nm) and fluorescence quantum yields (φ) of 1 μM dye in 100 mM KCl 10 mM MOPS pH 7.2 with 50 μM EDTA (—Zn^2+), 100 μM ZnCl2 (+Zn^2+) or 100 μM ZnCl2 and 1 μM his6-CFP (+Zn^2++his6-CFP).

[2] = test system: poly-histidine peptide
Procedure: (§1) A solution of Compound (I) in buffer containing 1 μM Zn^2+ was added extracellularly to intact HEK293 cells expressing a His6-tagged test-protein, targeted to the surface of the cell membrane.

[3] = test system: HEK293 cells expressing a His6-tagged test-protein
From the text: A gene encoding the peptide […] (His6-) was created by the polymerase chain reaction (PCR), using pRSETB template (Invitrogen). BglII and SacII restriction sites were incorporated at the 5′ and 3′ ends of the gene, by using the forward primer […] and reverse primer […]. For expression on the surface of mammalian cells, the gene was inserted into the pDisplay vector (Invitrogen) using the BglII and SacII restriction sites. This vector supplies the necessary sequences for entry into the secretory pathway and anchoring to the outer face of the plasma membrane.
HEK 293 cells were plated onto sterilized glass cover slips on 2 cm dishes or 10 cm plates and grown to 50–100% confluency in DMEM supplemented with 10% FBS at 37° C. in 6% CO2. Cells were transfected with FUGENE-6 transfection reagent (Roche Molecular Biochemicals). After 24 to 48 h incubation at 37° C. in culture medium, the cells were washed once with Hanks' balanced salt solution buffer (HBSS). Then 2 mL of the staining solution (HEPES buffer with 1 μM free Zn^2+ (pH 7.4), ˜1–1.5 μM of compound (I) (DMSO stock)) was added to the cells. After 1 min, the cells were washed twice with HBSS and imaged. Imaging experiments were performed with excitation at 540 nm (25 nm bandwidth), emission at 595 nm (50 nm bandwidth), and dichroic mirror at 560 nm for the Zn-compound (I); and excitation at 420 nm (20 nm bandwidth), emission at 475 nm (40 nm bandwidth) and dichroic mirror at 450 nm for CFP.
as §1

[4] = remark: listed apart in the source
Procedure: Formation of the Zn-complex can be monitored by absorbance or fluorescence emission and excitation shifts. Aliquots of a dye stock solution in DMSO were added to 500 μL of buffers containing 10 nM, 100 nM, 1 μM or 10 μM free zinc (controlled by Ca^2+/Zn^2+ EGTA and 10 mM HEPES; see Walkup, G. K., Burdette, S. C., Lippard, S. J., and Tsien, R. Y., J. Am. Chem. Soc. 2000, 122, 5644–5645) or zinc free (10 mM HEPES, 1 mM EDTA buffer) solutions to yield approximately 1–1.5 μM dye solution (ε˜65,500 M^−1 cm^−1).

[5] = +Zn2+: 1 μM dye, pH 7.2, 100 μM ZnCl2
[6] = −Zn2+: 1 μM dye, 100 mM KCl 10 mM MOPS pH 7.2, 50 μM EDTA

Emission maximum (em) [5] [nm] | Excitation maximum (ex) [5] [nm] | Fluorescence quantum yield (φ) [5] | Emission maximum (em) [6] [nm] | Excitation maximum (ex) [6] [nm] | Fluorescence quantum yield (φ) [6] | Emission maximum (em) [1] [nm] | Excitation maximum (ex) [1] [nm] | Fluorescence quantum yield (φ) [1] | Molecule | Fluorescence anisotropy binding [2] | Speed of staining ([3]; intact HEK293 cells, 1 μM Zn2+) | Staining of non-transfected cells ([3]; neighboring non-transfected HEK293 cells, same staining) | Reversibility of staining ([3]; washing with EDTA solutions (FIG. 7)) | Staining of transfected cells ([3]; ~1–1.5 μM compound, 1 μM free Zn2+, added extracellularly, 1 min, washed) | Extinction coefficient ε ([4]; dye solution in HEPES buffers) | Fluorescence quantum yield ([4]; virtually unchanged between 0 and 1 μM free Zn2+ (FIG. 2))
560 | 523 | 0.37 | 544 | 517 | 0.47 | 560 | 531 | 0.19 | 2′,7′-bis(2-dimethylaminoethanesulfonamido)-4′,5′-difluorofluorescein [Compound II] |  |  |  |  |  |  | 
566 | 533 | 0.35 | 547 | 525 | 0.60 | 570 | 545 | 0.08 | 2′,7′-bis(2-pyridylsulfonamido)-4′,5′-difluorofluorescein [Compound IV] |  |  |  |  |  |  | 

Molecule | Emission maximum (em) [5] [nm] | Excitation maximum (ex) [5] [nm] | Fluorescence quantum yield (φ) [5] | Emission maximum (em) [6] [nm] | Excitation maximum (ex) [6] [nm] | Fluorescence quantum yield (φ) [6] | Emission maximum (em) [1] [nm] | Excitation maximum (ex) [1] [nm] | Fluorescence quantum yield (φ) [1] | Fluorescence anisotropy binding [2] | Speed of staining ([3]; intact HEK293 cells, 1 μM Zn2+) | Staining of non-transfected cells ([3]; neighboring non-transfected HEK293 cells, same staining) | Reversibility of staining ([3]; washing with EDTA solutions (FIG. 7)) | Staining of transfected cells ([3]; ~1–1.5 μM compound, 1 μM free Zn2+, added extracellularly, 1 min, washed) | Extinction coefficient ε ([4]; dye solution in HEPES buffers) | Fluorescence quantum yield ([4]; virtually unchanged between 0 and 1 μM free Zn2+ (FIG. 2))
Cc1c(O)c(NS(=O)(=O)c2ccccn2)cc2c1Oc1c(cc(NS(=O)(=O)c3ccccn3)c(O)c1C)C21OC(=O)c2ccccc21 [Compound I, 2′,7′-Bis(pyridyl-2-sulfonamido)-4′,5′-dimethylfluorescein] | 557 | 523 | 0.34 | 545 | 518 | 0.40 | 560 | 536 | 0.09 | clearly indicate binding to a poly-histidine peptide | stains cells virtually instantaneously | no staining | staining is reversible by washing with EDTA solutions | transfected cells clearly showed membrane specific fluorescent staining | ~65,500 M^−1 cm^−1 | ~0.4
